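Grown in 96-well plates, cells were treated for 48 hours with each compound at five concentrations. Insufficient inhibition: endpoint recorded as highest concentration tested. TGI is the concentration that stops growth completely.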

Test systems include HL-60(TB) leukemia; SK-MEL-28 melanoma; NCI-H23 lung; MDA-MB-231 breast; DU-145 prostate; SR leukemia; UACC-257 melanoma; HS 578T breast; NCI-H226 lung; HOP-92 NSCLC; OVCAR-3 ovarian.
Common to all, as to experiment: NCI tumour cell line growth inhibition, 48 h

Regarding `Cc1nn(C(=O)Cc2ccccc2)c2c1C(c1ccccc1)SC(N)=N2` (stereo not drawn), the TGI with HL-60(TB) leukemia, with SK-MEL-28 melanoma, in the assay on NCI-H23 lung, with MDA-MB-231 breast, with DU-145 prostate and with SR leukemia was > 100 µM in each case. For the same compound, the TGI in the assay on UACC-257 melanoma, in the assay with HS 578T breast and in the assay with NCI-H226 lung was > 100 µM in each case.
Consider `COc1ccc(S(=O)(=O)n2c3c(c4ccccc42)[C@@H]2[C@@H](CCCN2C(=O)CS(=O)c2ccc(C)cc2)[C@H](Cl)C3)cc1` (stereo partly drawn), for which the TGI with HOP-92 NSCLC, with HL-60(TB) leukemia, with SK-MEL-28 melanoma, in the assay with NCI-H23 lung, with OVCAR-3 ovarian and in the assay with MDA-MB-231 breast was > 100 µM each time. Besides, the TGI with DU-145 prostate, in the assay on SR leukemia, in the assay with UACC-257 melanoma, in the assay on HS 578T breast and with NCI-H226 lung was > 100 µM each time.
For the compound `O=C(C(=O)n1ccc2ccccc21)n1ccc2ccccc21`, the TGI in the assay with HOP-92 NSCLC, in the assay with SK-MEL-28 melanoma, in the assay on NCI-H23 lung, in the assay with OVCAR-3 ovarian, in the assay on MDA-MB-231 breast and in the assay on DU-145 prostate was > 100 µM throughout. Also, the TGI with SR leukemia, with UACC-257 melanoma, in the assay on HS 578T breast and with NCI-H226 lung was > 100 µM each time.
As to `CC(N)/C(N)=N/O` (stereo not drawn), the TGI in the assay on HOP-92 NSCLC, in the assay with HL-60(TB) leukemia, in the assay with SK-MEL-28 melanoma, with NCI-H23 lung, in the assay on OVCAR-3 ovarian and in the assay with MDA-MB-231 breast was > 100 µM each time. Moreover, the TGI in the assay on DU-145 prostate, in the assay with SR leukemia, in the assay with UACC-257 melanoma, with HS 578T breast and in the assay on NCI-H226 lung was > 100 µM in each case.
Take `O=[N+]([O-])c1ccc2nc(Nc3ccccc3)c(Nc3ccccc3)nc2c1`: the TGI in the assay on HOP-92 NSCLC turned out to be 4.88 µM; with HL-60(TB) leukemia, 40.4 µM; with SK-MEL-28 melanoma, 8.4 µM; with NCI-H23 lung, 4.26 µM; in the assay on MDA-MB-231 breast it was 2.64 µM; with DU-145 prostate it was 4.6 µM. Moreover, the TGI is > 100 µM in the assay with SR leukemia, 5.1 µM in the assay with UACC-257 melanoma, 8.75 µM in the assay on HS 578T breast and 5.1 µM with NCI-H226 lung.
As to `C[C@]12c3c4cc(NC(=O)C(=O)NCc5ccc(-c6ccccn6)nc5)cc3Oc3cc(NC(=O)C(=O)NCc5ccc(-c6ccccn6)nc5)cc(c31)OC1C=C(NC(=O)C(=O)NCc3ccc(-c5ccccn5)nc3)C=C(O4)C12` (stereo partly drawn), the TGI in the assay with HL-60(TB) leukemia was > 100 µM; with SK-MEL-28 melanoma it was > 100 µM; in the assay with OVCAR-3 ovarian it was > 100 µM; in the assay on MDA-MB-231 breast it was 27.5 µM; in the assay with DU-145 prostate, 98.6 µM; in the assay on SR leukemia, 51.9 µM. The TGI in the assay on UACC-257 melanoma, with HS 578T breast and in the assay on NCI-H226 lung was > 100 µM throughout.
Take `CSC(=O)c1sc(SC)[n+](-c2ccccc2)c1O`: the TGI is 34.9 µM in the assay on SK-MEL-28 melanoma; 39.7 µM in the assay on NCI-H23 lung; 26.2 µM in the assay with OVCAR-3 ovarian; 39 µM with MDA-MB-231 breast; 29.5 µM in the assay on DU-145 prostate; > 100 µM with SR leukemia. The TGI is > 100 µM with HS 578T breast and 52.9 µM in the assay on NCI-H226 lung.
On to `CCOC(=O)c1cn2c(n1)sc1cc(F)ccc12`, for which the TGI with HOP-92 NSCLC, in the assay with SK-MEL-28 melanoma, with NCI-H23 lung, in the assay on OVCAR-3 ovarian, in the assay on MDA-MB-231 breast and in the assay with DU-145 prostate was > 100 µM in each case. For the same compound, the TGI with SR leukemia, in the assay with UACC-257 melanoma, in the assay on HS 578T breast and in the assay on NCI-H226 lung was > 100 µM in each case.
Regarding `CC(=O)CC1CCC(=O)/C=C/C(=O)OC(CC(C)=O)CCC(=O)/C=C/C(=O)O1` (stereo not drawn), the TGI in the assay on HOP-92 NSCLC was 10.3 µM; in the assay on SK-MEL-28 melanoma, 20.5 µM; in the assay on NCI-H23 lung, 36.4 µM; with OVCAR-3 ovarian, 17.1 µM; in the assay with MDA-MB-231 breast it was 15 µM; in the assay on DU-145 prostate, 35 µM. Moreover, the TGI in the assay on SR leukemia was > 100 µM; in the assay on UACC-257 melanoma it was 31.4 µM; with HS 578T breast, 69.9 µM; in the assay on NCI-H226 lung it was 61.3 µM.
Consider `C[N+]12C=CC=C1C(N1CCCC1)c1scc(-c3ccc(Br)cc3)c12` (stereo not drawn), for which the TGI with HOP-92 NSCLC is 42.1 µM; in the assay with SK-MEL-28 melanoma, > 60.5 µM; in the assay on NCI-H23 lung, 32.4 µM; in the assay with OVCAR-3 ovarian, 39.1 µM; with MDA-MB-231 breast it was > 93.8 µM; in the assay on DU-145 prostate, > 100 µM. Also, the TGI in the assay on SR leukemia is 35.5 µM; in the assay on UACC-257 melanoma, > 51.9 µM; in the assay with HS 578T breast, 9.6 µM; with NCI-H226 lung, > 100 µM.
`CC(C)=C[C@H]1C[C@H](C)[C@H]2CC[C@H](C)c3c2c1c(C)c1ncoc31`: the TGI is 31.4 µM in the assay on HOP-92 NSCLC; 44.8 µM in the assay on HL-60(TB) leukemia; 37 µM with SK-MEL-28 melanoma; 28.7 µM in the assay on OVCAR-3 ovarian; 39.3 µM in the assay on MDA-MB-231 breast; 33.9 µM with DU-145 prostate. Moreover, the TGI in the assay on SR leukemia was 40.9 µM; with UACC-257 melanoma, 33.5 µM; in the assay with HS 578T breast, 45 µM; with NCI-H226 lung, 33.2 µM.
With `Cc1cn(C2OC(CO[Si](C)(C)C(C)(C)C)C(N(C)O[Si](C)(C)C(C)(C)C)C2[Se]c2ccccc2)c(=O)[nH]c1=O` (stereo not drawn), the TGI with HOP-92 NSCLC is 10.9 µM; in the assay with HL-60(TB) leukemia, > 100 µM; in the assay with SK-MEL-28 melanoma, 22.2 µM; in the assay on NCI-H23 lung, 24.6 µM; in the assay with OVCAR-3 ovarian, 19.9 µM; in the assay on MDA-MB-231 breast, 43.8 µM. The TGI in the assay on DU-145 prostate is 79 µM; in the assay on SR leukemia it was > 100 µM; in the assay on HS 578T breast it was 7.58 µM; in the assay with NCI-H226 lung, 21.7 µM.
As for `Cc1ccc2nc(-c3ccccc3)cc(=O)n2c1`, the TGI in the assay on HOP-92 NSCLC, in the assay on HL-60(TB) leukemia, in the assay with SK-MEL-28 melanoma, with NCI-H23 lung, with OVCAR-3 ovarian and with MDA-MB-231 breast was > 100 µM each time. In addition, the TGI with DU-145 prostate, with SR leukemia, in the assay on HS 578T breast and with NCI-H226 lung was > 100 µM throughout.
